Patent US20120121656A1, “METHODS AND COMPOSITIONS FOR PROTECTING AGAINST NEUROTOXICITY OF A NEUROTOXIC AGENT, AND IMPROVING MOTOR COORDINATION ASSOCIATED WITH A NEURODEGENERATIVE CONDITION OR DISEASE” (Revalesio Corporation, priority 2010, published 2012)

Assays:
[1] = Body weight of rats in the MBP EAE model; type: in vivo, Lewis rats; settings: Group 2F, 1 mg/kg IP once daily from study day 0
From the text: (§1) Body Weights. Body weight loss can be the first sign of disease initiation, while a sudden marked weight gain tends to accompany remission of EAE symptoms. Therefore, determination of individual body weights of animals was made shortly before EAE induction on study day 0 (study commencement) and thereafter on a daily basis throughout the entire 21-day observation period.
as §1, with “This working EXAMPLE discloses the weight change of rats subjected to the experiment described in Example 7.” for “Body Weights.”, “and” for “and thereafter”, “the” for “the entire”

MMP-2 = target: T1, MMP-2 (Homo sapiens, UniProt P08253); settings: cited from earlier work
T1 sequence (P08253 110-660): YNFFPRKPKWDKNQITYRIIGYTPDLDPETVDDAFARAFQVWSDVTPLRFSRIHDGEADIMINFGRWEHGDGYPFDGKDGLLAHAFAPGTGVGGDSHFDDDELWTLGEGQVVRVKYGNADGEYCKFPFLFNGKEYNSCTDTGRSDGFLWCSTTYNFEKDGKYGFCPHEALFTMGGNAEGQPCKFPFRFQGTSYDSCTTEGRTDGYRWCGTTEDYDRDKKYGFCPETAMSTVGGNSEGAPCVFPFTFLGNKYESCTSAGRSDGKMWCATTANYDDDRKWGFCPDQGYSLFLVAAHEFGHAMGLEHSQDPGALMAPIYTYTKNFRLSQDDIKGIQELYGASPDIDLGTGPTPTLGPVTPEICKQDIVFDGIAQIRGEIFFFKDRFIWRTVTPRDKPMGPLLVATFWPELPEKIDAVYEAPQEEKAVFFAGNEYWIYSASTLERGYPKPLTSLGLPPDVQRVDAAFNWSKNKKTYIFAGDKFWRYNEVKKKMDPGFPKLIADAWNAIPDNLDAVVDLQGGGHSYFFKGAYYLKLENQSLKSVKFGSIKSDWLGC

MMP-9 = MMP-9 (Homo sapiens, UniProt P14780); settings: cited from earlier work
primary progressive MS = settings: 943 patients with primary progressive MS (Wolinsky et al. 2007); cited from earlier work
MS = settings: in vivo; cited from earlier work

Chain of MMP-9 (P14780 94-707, species assumed): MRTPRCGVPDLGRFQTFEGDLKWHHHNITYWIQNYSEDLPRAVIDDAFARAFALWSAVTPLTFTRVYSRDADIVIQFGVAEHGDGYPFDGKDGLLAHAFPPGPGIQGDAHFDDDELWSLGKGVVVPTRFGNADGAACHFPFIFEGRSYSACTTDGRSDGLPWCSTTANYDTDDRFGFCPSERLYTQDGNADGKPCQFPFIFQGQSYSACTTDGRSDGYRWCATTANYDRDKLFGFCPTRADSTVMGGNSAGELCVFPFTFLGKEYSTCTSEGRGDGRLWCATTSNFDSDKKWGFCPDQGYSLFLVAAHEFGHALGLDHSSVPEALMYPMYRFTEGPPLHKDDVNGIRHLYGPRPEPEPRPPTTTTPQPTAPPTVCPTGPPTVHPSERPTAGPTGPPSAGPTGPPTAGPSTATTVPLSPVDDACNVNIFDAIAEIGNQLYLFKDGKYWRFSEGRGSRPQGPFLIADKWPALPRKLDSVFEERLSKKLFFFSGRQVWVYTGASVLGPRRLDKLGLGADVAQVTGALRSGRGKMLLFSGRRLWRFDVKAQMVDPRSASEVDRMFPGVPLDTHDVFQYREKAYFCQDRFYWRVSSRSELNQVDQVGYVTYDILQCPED

Compound | binding and inhibition of MMP-2 (MMP-2) | binding and inhibition of MMP-9 (MMP-9) | other results
C[C@@H]1C[C@H]2[C@@H]3CCC4=CC(=O)C=C[C@]4(C)[C@@]3(F)[C@@H](O)C[C@]2(C)[C@@]1(O)C(=O)CO [Dexamethasone] |  |  | mean body weight loss during the study [1]: 10%; mean body weight lost at study termination [1]: 2%
O=S(=O)(CCC(S)CS)c1ccc(Oc2ccccc2)cc1 (centres unmarked) [compound 1, 4-(4-phenoxyphenylsulfonyl)butane-1,2-dithiol] | bind selectively and inhibit potently | bind selectively and inhibit potently | 
O=S(=O)(CCCC(S)CS)c1ccc(Oc2ccccc2)cc1 (centres unmarked) [compound 2, 5-(4-phenoxyphenylsulfonyl)pentane-1,2-dithiol] | bind selectively and inhibit potently | bind selectively and inhibit potently | 
glatiramer acetate |  |  | progression of disability and the disease (primary progressive MS): failed to halt the progression of disability and the disease
interferon-β |  |  | effectiveness in reducing the rate of MS episodes (MS): 18-38%
